Entries after “also recorded” stand apart in the source; their conditions may differ. Blank lines part the entries; values can stand above or below the molecule they belong to. Positions of bridges follow the written chain, without caps; N, C: chain ends. Residues, ends and D or L forms follow the SMILES beside them.
Tests used:
[1] = system: brains of C57BL/6 mice; assay: In vivo brain delivery of IRdye800CW-IgG mAb (NIRF quantification); conditions: n = 3; for amount of IgG mAb in the brain (brain deposition): IgG mAb 21.6 nmol/kg with or without 13 µmol/kg peptide, i.v. tail vein, 15 min circulation, PBS/0.5% Tween-20 perfusion, NIRF (Odyssey CLx) of brain homogenate, mean ± SEM; for brain delivery of IgG mAb compared to control (IgG mAb alone), in words: IgG mAb 21.6 nmol/kg, peptide 13 µmol/kg i.v., ANOVA Student–Newman–Keuls
Description: The activity of each peptide in enhancing BBB penetration was evaluated by delivering IRdye800CW donkey anti-goat IgG mAb in C57BL/6 mice; the amounts of mAb in the brain were determined using near infrared fluorescence (NIRF) imaging. Each group contains 3 mice per group (n = 3) with a mixture of male and female mice, selected randomly for each arm of the study. The injection solution was prepared by adding 600 µL PBS into 0.5 mg lyophilized IgG mAb; then, approximately 1.5 mg lyophilized peptide was added into the mixture yielding the injectable formulation. A 100 µL solution of a mixture containing IgG mAb (21.6 nmol/kg) along with 13 µmol/kg peptide was administered via tail vein. As a control, 100 µL of IgG mAb alone was administered via i.v. route. After the delivered molecules had been circulating for 15 min, the mice were sacrificed; then, a mixture of PBS with 0.5% Tween-20 was administered for cardiac perfusion to remove the blood and delivered molecules from the brain microvessels. The brain and other organs such as lung, heart, spleen, liver, and kidney were harvested and rinsed with PBS. The isolated organs were scanned with Odyssey® CLx for mAb quantification.
The brain deposition of IgG mAb was also quantified by NIRF imaging in brain homogenates. The isolated brains were mechanically homogenized in 2.0 mL of PBS. To make the standard solutions, IRDye800CW IgG mAb stock solution (70 µg/mL) was prepared; it was then diluted with various amounts of PBS to make six different mAb concentrations. To generate a calibration curve, the brain homogenate (200 µL) was aliquoted out to a 96-well plate. A total of 10 µL of each concentration of IgG mAb was added to three different wells of blank brain homogenates. The standard spiked homogenates were at a range of 10–200 ng/mL IgG mAb in brain homogenate. The wells were scanned using the Odyssey® CLx scanner, and the signal intensities vs. concentrations of mAb per gram of brain were used to generate a calibration curve.
ANOVA with Student–Newman–Keuls was used to compare the data for determining statistical significance for IgG mAb deposition in the brains. A p-value of less than 0.05 was used as a criterion for a significant difference in data comparison. Numeric results are presented as: mean ± SEM.
A calibration curve was generated to determine the amount of IgG mAb in the brain by spiking blank brain homogenates with a concentration range from 10 to 200 ng/mL, and good linearity with R^2 ≥ 0.98 was achieved. […] The average amounts of IgG mAb in the brains of HAV6-treated and control animals were 3.4 ± 0.4 and 4.0 ± 0.5 pmol/g brain, respectively. In contrast, the average amounts of mAb in the brains of cyclic HAVN1- and HAVN2-treated mice were 8.6 ± 0.5 and 8.8 ± 0.6 pmol/g brain, respectively. The BBB modulatory activities of ADTC5, linear ADTHAV, and cyclic ADTHAV were also compared to the control (Figure 5). […] The average brain deposition of IgG mAb were 11.8 ± 0.5, 15.7 ± 0.8, and 13.3 ± 0.7 pmol/g brain for linear ADTHAV, cyclic ADTHAV, and ADTC5, respectively.

[2] = target: T1, EC1 domain of E-cadherin (Homo sapiens, UniProt P12830); assay: SPR binding to immobilized EC1 domain of E-cadherin; conditions: authors' separate study; for Kd: EC1 immobilized on streptavidin chip via Streptag I at N-terminus
T1 sequence (P12830 155-262 limits assumed): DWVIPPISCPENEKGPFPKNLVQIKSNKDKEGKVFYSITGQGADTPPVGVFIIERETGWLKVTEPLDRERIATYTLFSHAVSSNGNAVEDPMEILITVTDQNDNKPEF
From the text: However, it was not yet clear whether the difference in activity was due to additive activity by the two sequences (Thr-Pro-Pro-Val and Ser-His-Ala-Val) or domination by only one sequence. As mentioned above, there was a trend that cyclic ADTHAV was slightly better than ADTC5. Because it is difficult to differentiate the activities of cyclic ADTHAV and ADTC5 in vivo, we compared their binding properties to the EC1 domain of E-cadherin using SPR experiments in a separate study. After optimizing the SPR running conditions, the EC1 protein was immobilized on the streptavidin chip via the Streptag I sequence on the N-terminus of the EC1 domain followed by injection of various peptide concentrations. […] In the future, the mechanism of cyclic ADTHAV binding to the EC1-domains of E-cadherin and VE-cadherin will be evaluated.

[3] = system: MDCK cell monolayers; conditions: cited from earlier work
Description: Previously, cyclic cHAVc1 (cyclo(1,8)Ac-CSHAVASC-NH2) and cHAVc3 (cyclo(1,6)Ac-CSHAVC-NH2) were prepared and compared to a linear HAV4 (Ac-SHAVAS-NH2) in modulating the intercellular junctions in vitro and in vivo [19]. […] An alanine scanning study was carried out to evaluate the role of each amino acid in HAV6 peptide, and the biological activity of each alanine mutant peptide was evaluated in lowering the TEER values of MDCK cell monolayers. Mutation of the Ser1 to Ala1 residue reduced the junction modulatory activity of the HAV6 mutant; ...

[4] = target: EC1 domain of E-cadherin; assay: SPR; EC1 protein immobilised on a streptavidin chip via the Streptag I sequence on its N-terminus; various peptide concentrations injected

Kd [2]: 0.114 µM
binding affinity to EC1 domain of E-cadherin vs ADTC5, in words [2]: higher binding affinity
Molecule: CC(C)[C@@H]1NC(=O)[C@H](C)NC(=O)[C@H](Cc2c[nH]cn2)NC(=O)[C@H](CO)NC(=O)[C@H](C(C)C)NC(=O)[C@@H]2CCCN2C(=O)[C@@H]2CCCN2C(=O)[C@H]([C@@H](C)O)NC1=O [cyclic ADTHAV, Cyclo(1,8)TPPVSHAV] (cyclo(TPPVSHAV))
BBB modulatory activity to deliver IgG mAb compared to cyclic HAVN2, in words ([1]; 13 µmol/kg peptide, 15 min): significantly better than that of cyclic HAVN2
amount of IgG mAb in the brain (brain deposition) [1]: 15.7 ± 0.8 pmol/g brain
brain delivery of IgG mAb compared to control (IgG mAb alone), in words ([1]; 15 min): significantly better than in the PBS control
binding affinity to EC1 domain of E-cadherin vs ADTC5, in words ([2]; listed as Cyclic ADTHAV): better binding affinity to the EC1 domain of E-cadherin than does ADTC5

Molecule: Cyclo(1,6)SHAVSS (head to tail) [HAVN1, N-to-C-termini cyclo-hexapeptide derived from HAV6]
BBB modulatory activity / IgG mAb brain delivery compared to HAV6, in words ([1]; 13 µmol/kg peptide, 15 min): significantly enhanced; also recorded: improvement in the BBB modulatory activity; also recorded: better BBB modulatory effects than their linear counterpart, HAV6
amount of IgG mAb in the brain (brain deposition) [1]: 8.6 ± 0.5 pmol/g brain
brain delivery of IgG mAb compared to control (IgG mAb alone), in words ([1]; 15 min): significantly enhanced

Molecule: Ac-TPPVSHAV-NH2 [linear ADTHAV]
amount of IgG mAb in the brain (brain deposition) [1]: 11.8 ± 0.5 pmol/g brain
brain delivery of IgG mAb compared to control (IgG mAb alone), in words ([1]; 15 min): significantly better than in the PBS control

Molecule: cyclo(1,8)Ac-CSHAVASC-NH2 (disulfide) [cHAVc1, earlier cyclic HAV peptide]
junction modulatory activity in MDCK cell monolayers, in words ([3]; compared to HAV4 (and cHAVc1), ref [19]): same junction modulatory activity as HAV4 peptide

Molecule: Ac-SHAVAS-NH2 [HAV4, earlier linear HAV peptide]
junction modulatory activity of HAV6 analogues (alanine scan), in words ([3]; lowering TEER of MDCK cell monolayers, ref [34]): enhanced modulatory activity of the peptide compared to HAV6

Molecule: Cyclo(1,5)SHAVS (head to tail) [HAVN2, N-to-C-termini cyclo-pentapeptide derived from HAV6]
BBB modulatory activity / IgG mAb brain delivery compared to HAV6, in words ([1]; 13 µmol/kg peptide, 15 min): significantly enhanced; also recorded: improvement in the BBB modulatory activity; also recorded: better BBB modulatory effects than their linear counterpart, HAV6
BBB modulatory activity compared to HAVN1, in words ([1]; 13 µmol/kg peptide, 15 min): removal of one serine residue did not influence the BBB modulatory activity of HAVN2 compared to HAVN1
amount of IgG mAb in the brain (brain deposition) [1]: 8.8 ± 0.6 pmol/g brain
brain delivery of IgG mAb compared to control (IgG mAb alone), in words ([1]; 15 min): significantly enhanced

Kd [2]: 26.8 µM
Molecule: CC(=O)N[C@H]1CSSC[C@@H](C(N)=O)NC(=O)[C@H](C(C)C)NC(=O)[C@@H]2CCCN2C(=O)[C@@H]2CCCN2C(=O)[C@H]([C@@H](C)O)NC(=O)[C@H](CC(=O)O)NC1=O [ADTC5, Cyclo(1,7)Ac-CDTPPVC-NH2] (Ac-CDTPPVC-NH2; disulfide 1-7)

Kd [4]: 0.114 µM
B1: Cyclic ADTHAV (peptide)
peptide: TPPVSHAV
modifications: cyclo(1,8): N-to-C terminal peptide bond

Kd [4]: 26.8 µM
B2: Cyclic ADTC5 (peptide)
peptide: Ac-CDTPPVC-NH2
modifications: disulfide 1-7
SMILES: CC(=O)N[C@H]1CSSC[C@@H](C(N)=O)NC(=O)[C@H](C(C)C)NC(=O)[C@@H]2CCCN2C(=O)[C@@H]2CCCN2C(=O)[C@H]([C@@H](C)O)NC(=O)[C@H](CC(=O)O)NC1=O

Source: paper PMC6920923, “Improving In Vivo Brain Delivery of Monoclonal Antibody Using Novel Cyclic Peptides” (Pharmaceutics, 2019)
